Legend:
Assay type in all cases: in vivo
[1] = system: Housefly [Musca domestica]; experiment: Housefly insecticidal test; conditions: μg per 25 female flies; mortality after 48 hours
In short: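 Residual contact test: acetone dilution, 0.01% peanut oil spreader, solvent evaporated; 25 ♀ flies (1-2 d old) per cage; sugar-water plug; 48 h mortality read. LC50 in μg/25 female flies, from dose-mortality curves; top dose 100 μg/25 flies.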

[2] = system: Tobacco Budworm [Heliothis virescens (Fabricius)] eggs; experiment: Tobacco budworm egg test; conditions: 2-day old eggs, percent in solution
In short: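 LC50 is given as percent compound in the dipping solution, fitted from dosage-mortality curves. Two-day-old eggs on paper towel were dipped in acetone solutions (top concentration 0.1%), kept at 78° F on rearing medium, and scored after control hatch and larval feeding.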

[3] = system: Cabbage Looper [Trichoplusia ni (Hubner)]; experiment: Cabbage looper insecticidal test; conditions: second-instar larvae, percent in solution; 3-5 days
In short: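 LC50, as percent test compound in solution, derived from dosage-mortality curves; concentrations started at 0.1% and went lower. Five second-instar larvae per dish fed on acetone-water-dipped, dried squash cotyledons in a humid chamber. Deaths recorded 3-5 days post-infestation.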

[4] = system: Aster Leafhopper [Macrosteles fascifrens (Stal)]; experiment: Aster leafhopper insecticidal test; conditions: adults/nymphs, percent in solution; 48 hours
In short: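 Three ~10 cm oat seedlings per cup were dipped 2-3 seconds in 50-50 acetone-water compound solutions, dried, and caged with ten adult/nymph leafhoppers. Mortality was counted after 48 hours at concentrations from 0.05% downward. LC50, as percent compound in solution, came from dosage-mortality curves.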

[5] = system: Maize weevil [Sitophilus Zeamais (Motschulsky)]; experiment: Maize weevil insecticidal test; conditions: adult weevils, percent in solution; 48 hours
In short: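 LC50, in percent of compound in solution, was derived from dosage-mortality curves after 48 h at about 25 °C. Ten adult weevils per container fed on four corn seeds briefly immersed in acetone:water (50:50) solutions of up to 0.01% and dried.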

Structure (SMILES)	LC50, HF [1] [µg]	LC50, TBW, E (TBW-E) [2] [%]	LC50, CL [3] [%]	LC50, LH [4] [%]	LC50, MW [5] [%]
CCc1ccc(N=C(OCc2ccc(F)c(Oc3ccccc3)c2)C(C)C)cc1 [Compound 360]	< 100	> 0.1	0.006	< 0.05	> 0.01
CC(C)C(=Nc1ccc(F)c(Cl)c1)OCc1ccc(OCc2ccccc2)cc1 [Compound 475]	> 100	> 0.1	0.008	> 0.05	> 0.01
Cc1cc(N=C(OCc2ccc(F)c(Oc3ccccc3)c2)C(C)C)ccc1Br [Compound 358]	< 100	> 0.1	> 0.1	< 0.05	> 0.01
Cc1ccc(N=C(OCc2cccc(Oc3ccccc3)c2)C(C)C)cc1 [Compound 156]	10	0.05	0.004	> 0.05	> 0.01
CC(C)C(=Nc1ccc(F)c(Cl)c1)OCc1cccc(Oc2ccc(F)c(F)c2)c1 [Compound 217]	8	0.015	0.00006	> 0.05	0.0084
CC(C)C(=Nc1ccc2c(c1)OCO2)OCc1ccc(F)c(Oc2ccc(Cl)cc2)c1 [Compound 366]	< 100	0.012	0.0007	0.05	> 0.01
COc1ccc(N=C(OCc2cccc(Oc3ccccc3)c2)C(C)C)cc1 [Compound 160]	7	0.09	0.005	0.05	> 0.01
CC(=Nc1ccc(F)c(F)c1)OCc1coc(Cc2ccccc2)c1 [Compound 526]	8.3	> 0.1	> 0.1	> 0.05	> 0.01
CC(C)C(=Nc1cccc(C(F)(F)F)c1)OCC#CCOc1ccccc1 [Compound 548]	> 100	> 0.1	< 0.1	> 0.05	> 0.01
CC(C)C(=Nc1ccc(F)c(Cl)c1)OCc1cccc(Cc2ccccc2)c1 [Compound 537]	20	> 0.1	> 0.1	> 0.05	> 0.01
C=C(C)C(=Nc1ccc(Cl)cc1)OCc1cccc(Oc2ccccc2)c1 [Compound 6]	17	0.015	0.02	> 0.05	> 0.01
Cc1ccc(N=C(OCc2ccc(F)c(Oc3ccc(F)cc3)c2)C(C)C)cc1F [Compound 355]	< 100	> 0.1	> 0.1	< 0.05	> 0.01
Cc1ccc(N=C(OCc2ccc(F)c(Oc3ccccc3)c2)C(C)C)cc1F [Compound 354]	< 100	0.018	> 0.1	< 0.05	0.0068
CC(C)C(=Nc1ccc2c(c1)OCO2)OCc1cccc(Oc2ccc(C(C)(C)C)cc2)c1 [Compound 367]	> 100	> 0.1	< 0.1	> 0.05	> 0.01
CC(C)C(=Nc1ccc(F)c([N+](=O)[O-])c1)OCc1cccc(Oc2ccccc2)c1 [Compound 293]	19	> 0.1	0.0045	> 0.05	> 0.01
C#CC(OC(=Nc1cccc(C(F)(F)F)c1)C(C)C)c1cccc(Oc2ccccc2)c1 (stereo not drawn) [Compound 519]	60	> 0.1	0.0037	> 0.05	> 0.01
CC1(C)C(C(=Nc2ccc(F)c(Cl)c2)OCc2cccc(Oc3ccccc3)c2)C1(C)C [Compound 124]	17	> 0.1	0.01	> 0.05	> 0.01
CCC(=Nc1ccc(F)c(F)c1)OCc1coc(Cc2ccccc2)c1 [Compound 524]	5.2	> 0.1	> 0.1	> 0.05	> 0.01
C#CC(OC(=Nc1ccc(F)c(Cl)c1)C(C)C)c1cccc(Oc2ccccc2)c1 (stereo not drawn) [Compound 533, N-(3-chloro-4-fluorophenyl)-O-[1-(3-phenoxyphenyl)-2-propyn-1-yl]isobutyrimidate]	60	> 0.1	> 0.1	> 0.05	> 0.01
C=CCOc1cccc(COC(=Nc2ccc(F)c(Cl)c2)C(C)C)c1 [Compound 479]	66	> 0.1	0.013	> 0.05	> 0.01
CC(C)(C)C(=Nc1ccc(F)c(F)c1)OCc1coc(Cc2ccccc2)c1 [Compound 525]	> 100	> 0.1	< 0.1	> 0.05	> 0.01
CC(C)C(=Nc1ccc(F)c(Cl)c1)OCc1cccc(Oc2ccccn2)c1 [Compound 549]	< 100	> 0.1	> 0.1	> 0.05	> 0.01
CC(C)C(=Nc1cccc(C(F)(F)F)c1)OCc1ccnc(Oc2ccc(Cl)cc2)c1 [Compound 517]	80	0.04	0.0008	> 0.05	> 0.01
N#CC(=Nc1ccc(Cl)cc1)OCc1cccc(Oc2ccccc2)c1 [Compound 21]	7	> 0.1	0.02	> 0.05	> 0.01
CC(C)C(=Nc1ccccc1C(F)(F)F)OCc1cccc(Oc2ccccc2)c1 [Compound 72]	> 100	> 0.1	0.08	> 0.05	> 0.01
CC(C)C(=Nc1ccc(C#N)cc1)OCc1cccc(Oc2ccccc2)c1 [Compound 172]	5	0.04	0.002	> 0.05	> 0.01
CC(C)C(=Nc1ccc2c(c1)OCO2)OCc1cccc(Oc2ccc(Cl)cc2)n1 [Compound 466]	13	> 0.1	0.0008	> 0.05	0.01

— patent US5070210A, “Novel ketenimines as intermediates for insecticides” (ICI Americas Inc., priority 1990, dated 1991)
